Tests used:
[1] = in vivo; conditions: male, Sprague-Dawley, rat, po
Experimental: A 7-day oral toxicity study with test compounds was performed in Sprague-Dawley male rats to assess their toxic potential and toxicokinetics, at daily doses of 100, 300 and 500 mg/kg/day, by gavage, at the constant dosage-volume of 5 mL/kg/day.
The test compounds were formulated in 30% (v/v) HPβCD in purified water. Each group included 5 principal male rats as well as 3 satellite animals for toxicokinetics. A fourth group was given 30% (v/v) HPβCD in water only, at the same frequency, dosage volume and by the same route of administration, and acted as the vehicle control group.
Compounds 37 and 176 were tested in this protocol.

[2] = Caco2 permeability, bi-directional; type: in vitro ADME; conditions: human; for Papp A→B at 1 h, 10 μM: Caco-2, pH 7.4
Experimental: Bi-directional Caco-2 assays were performed as described below. Caco-2 cells were obtained from European Collection of Cell Cultures (ECACC, cat 86010202) and used after a 21 day cell culture in 24-well Transwell plates (Fisher TKT-545-020B).
2×10^5 cells/well were seeded in plating medium consisting of DMEM+GlutaMAXI+1% NEAA+10% FBS (FetalClone II)+1% Pen/Strep. The medium was changed every 2-3 days.
Test and reference compounds (propranolol and rhodamine 123 or vinblastine, all purchased from Sigma) were prepared in Hanks' Balanced Salt Solution containing 25 mM HEPES (pH 7.4) and added to either the apical (125 μL) or basolateral (600 μL) chambers of the Transwell plate assembly at a concentration of 10 μM with a final DMSO concentration of 0.25%.
50 μM Lucifer Yellow (Sigma) was added to the donor buffer in all wells to assess integrity of the cell layers by monitoring Lucifer Yellow permeation. As Lucifer Yellow (LY) cannot freely permeate lipophilic barriers, a high degree of LY transport indicates poor integrity of the cell layer.
After a 1 hour incubation at 37° C. while shaking at an orbital shaker at 150 rpm, 70 μL aliquots were taken from both apical (A) and basal (B) chambers and added to 100 μLl 50:50 acetonitrile:water solution containing analytical internal standard (0.5 μM carbamazepine) in a 96 well plate.
Lucifer yellow was measured with a Spectramax Gemini XS (Ex 426 nm and Em 538 nm) in a clean 96 well plate containing 150 μL of liquid from basolateral and apical side.
Concentrations of compound in the samples were measured by high performance liquid-chromatography/mass spectroscopy (LC-MS/MS).
The Efflux ratios, as an indication of active efflux from the apical cell surface, were calculated using the ratio of PappB>A/PappA>B.

[3] = target: T1, hERG channels (Homo sapiens, UniProt Q12809); experiment: hERG patch clamp assay, liability for QT prolongation; type: cell-based
T1 construct: expressed in transfected cells
Experimental: Electrodes were manufactured from GC150TF pipette glass (Harvard), resistance was between 2 and 3 MΩ.
IC50 and IC20 values were calculated for each compound tested. The fold difference between the IC20 and the unbound Cmax concentrations of the test compound obtained at relevant therapeutic doses as determined by results obtained from the rat CIA model was calculated.
For the concentration response curves, peak tail current amplitude was measured during the voltage step to −50 mV.

[4] = target: T2, Recombinant human TYK2 catalytic domain (Homo sapiens, UniProt P29597); experiment: TYK2 inhibition assay; type: biochemical; conditions: semi-quantitative score
T2 construct: Recombinant human TYK2 catalytic domain (amino acids 871-1187; catalog number 08-147); purchased Carna biosciences 08-147
T2 sequence (P29597 871-1187): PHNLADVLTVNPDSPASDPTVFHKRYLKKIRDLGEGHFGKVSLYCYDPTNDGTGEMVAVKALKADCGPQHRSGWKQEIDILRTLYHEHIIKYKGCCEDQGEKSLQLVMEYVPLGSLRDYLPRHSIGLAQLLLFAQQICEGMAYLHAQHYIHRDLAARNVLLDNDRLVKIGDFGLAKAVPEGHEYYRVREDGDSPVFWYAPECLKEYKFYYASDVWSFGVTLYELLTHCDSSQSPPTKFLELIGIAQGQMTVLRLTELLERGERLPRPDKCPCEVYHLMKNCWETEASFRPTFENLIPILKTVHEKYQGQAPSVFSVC
Experimental: Recombinant human TYK2 catalytic domain (amino acids 871-1187; catalog number 08-147) was purchased from Carna biosciences. 5 ng of TYK2 was incubated with 12.5 μg polyGT substrate (Sigma catalog number P0275) in kinase reaction buffer (25 mM Hepes pH 7.5, 100 mM NaCl, 0.2 mM Na3VO4, 0.1% NP-40, 0.1 μM non-radioactive ATP, 0.125 μCi 33P-gamma-ATP (GE Healthcare, catalog number AH9968) final concentrations) with or without 5 μL containing test compound or vehicle (DMSO, 1% final concentration), in a total volume of 25 μL, in a polypropylene 96-well plate (Greiner, V-bottom). After 90 min at 30° C., reactions were stopped by adding of 25 μL/well of 150 mM phosphoric acid. All of the terminated kinase reaction was transferred to prewashed (75 mM phosphoric acid) 96 well filter plates (Perkin Elmer catalog number 6005177) using a cell harvester (Perkin Elmer). Plates were washed 6 times with 300 μL per well of a 75 mM phosphoric acid solution and the bottom of the plates was sealed. 40 μL/well of Microscint-20 was added, the top of the plates was sealed and readout was performed using the Topcount (Perkin Elmer). Kinase activity was calculated by subtracting counts per minute (cpm) obtained in the presence of a positive control inhibitor (10 μM staurosporine) from cpm obtained in the presence of vehicle. The ability of a test compound to inhibit this activity was determined as: Percentage inhibition=((cpm determined for sample with test compound present−cpm determined for sample with positive control inhibitor) divided by (cpm determined in the presence of vehicle−cpm determined for sample with positive control inhibitor))*100%.
Dose dilution series were prepared for the compounds enabling the testing of dose-response effects in the TYK2 assay and the calculation of the IC50 for each compound. Each compound was routinely tested at concentration of 20 μM followed by a 1/3 serial dilution, 8 points (20 μM-6.67 μM-2.22 μM-740 nM-247 nM-82 nM-27 nM-9 nM) in a final concentration of 1% DMSO.

T1 sequence (Q12809 whole entry): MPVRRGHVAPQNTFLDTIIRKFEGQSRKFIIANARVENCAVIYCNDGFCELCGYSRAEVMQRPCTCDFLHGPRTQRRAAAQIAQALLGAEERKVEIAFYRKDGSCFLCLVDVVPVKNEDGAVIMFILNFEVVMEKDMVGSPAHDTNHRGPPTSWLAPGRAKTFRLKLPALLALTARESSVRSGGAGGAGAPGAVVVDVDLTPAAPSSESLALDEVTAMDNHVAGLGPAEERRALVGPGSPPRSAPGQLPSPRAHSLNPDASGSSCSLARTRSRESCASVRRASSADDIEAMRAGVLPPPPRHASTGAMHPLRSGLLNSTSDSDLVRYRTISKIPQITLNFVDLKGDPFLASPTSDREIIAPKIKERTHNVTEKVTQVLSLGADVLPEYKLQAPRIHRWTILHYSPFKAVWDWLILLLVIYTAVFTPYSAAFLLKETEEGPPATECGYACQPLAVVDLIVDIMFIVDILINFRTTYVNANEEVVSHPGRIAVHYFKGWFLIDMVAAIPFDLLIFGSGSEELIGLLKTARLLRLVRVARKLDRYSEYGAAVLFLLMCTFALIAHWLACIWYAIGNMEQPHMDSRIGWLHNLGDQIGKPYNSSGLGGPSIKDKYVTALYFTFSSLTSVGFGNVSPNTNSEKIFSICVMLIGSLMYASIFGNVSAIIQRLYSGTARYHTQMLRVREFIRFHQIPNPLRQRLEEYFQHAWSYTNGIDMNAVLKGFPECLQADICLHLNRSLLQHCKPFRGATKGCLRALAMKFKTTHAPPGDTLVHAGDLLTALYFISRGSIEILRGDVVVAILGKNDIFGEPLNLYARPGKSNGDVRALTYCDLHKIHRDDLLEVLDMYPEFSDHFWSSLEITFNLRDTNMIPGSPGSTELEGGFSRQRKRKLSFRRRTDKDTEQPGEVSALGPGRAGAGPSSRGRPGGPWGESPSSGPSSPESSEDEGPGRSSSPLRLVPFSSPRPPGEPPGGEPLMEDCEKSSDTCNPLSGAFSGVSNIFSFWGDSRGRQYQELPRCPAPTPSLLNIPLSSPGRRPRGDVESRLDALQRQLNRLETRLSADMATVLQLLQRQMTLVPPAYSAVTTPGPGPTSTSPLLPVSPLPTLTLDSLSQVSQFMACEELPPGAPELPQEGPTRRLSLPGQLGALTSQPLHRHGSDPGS

Row | SMILES | Papp A→B at 1 h, 10 μM [2] [×10⁻⁶ cm/s] | IC50 [4] [nM] | NOAEL at 7 day [1] [mg/kg] | efflux ratio at 1 h, 10 μM ([2]; Caco-2, pH 7.4, PappB>A/PappA>B) | Fold difference between the hERG IC20 and the unbound Cmax ([3]; Dose 10 (rat CIA model)) | Fold difference between the hERG IC20 and the unbound Cmax ([3]; Dose 3 (rat CIA model)) | potential for QT prolongation ([3]; compared to Compound 37)
1 | O=C(Nc1nc2cccc(-c3ccc(OCc4ccccn4)cc3)n2n1)C1CC1 [Compound 37, N-(5-(4-(pyridin-2-ylmethoxy)phenyl)-[1,2,4]triazolo[1,5-a]pyridin-2-yl)cyclopropanecarboxamide] | 23 | 501 to 1000 | 500 | 0.85 | 7 | – | –
2 | N#Cc1ccc(COc2ccc(-c3cccc4nc(NC(=O)C5CC5)nn34)cc2)cn1 [Compound 176, N-(5-(4-((6-cyanopyridin-3-yl)methoxy)phenyl)-[1,2,4]triazolo[1,5-a]pyridin-2-yl)cyclopropanecarboxamide] | 10.6 | 1 to 100 | 500 | – | 82 | 137 | much lower potential QT prolongation issue
3 | O=C(Nc1nc2cccc(-c3ccc(OCc4cccnc4)cc3)n2n1)C1CC1 [Compound 36, N-(5-(4-(pyridin-3-ylmethoxy)phenyl)-[1,2,4]triazolo[1,5-a]pyridin-2-yl)cyclopropanecarboxamide] | 36.5 | 101 to 500 | – | – | – | – | –

Continued, in another order:

Row | Papp A→B at 1 h, 10 μM [2] [×10⁻⁶ cm/s] | IC50 [4] [nM] | SMILES | NOAEL at 7 day [1] [mg/kg] | efflux ratio at 1 h, 10 μM ([2]; Caco-2, pH 7.4, PappB>A/PappA>B) | Fold difference between the hERG IC20 and the unbound Cmax ([3]; Dose 10 (rat CIA model)) | Fold difference between the hERG IC20 and the unbound Cmax ([3]; Dose 3 (rat CIA model)) | potential for QT prolongation ([3]; compared to Compound 37)
4 | – | > 1000 | CC(=O)Nc1ccc(COc2ccc(-c3cccc4nc(NC(=O)C5CC5)nn34)cc2)cc1 [Compound 92, N-(5-(4-(4-acetamidobenzyloxy)phenyl)-[1,2,4]triazolo[1,5-a]pyridin-2-yl)cyclopropanecarboxamide] | – | – | – | – | –
5 | 14.9 | > 1000 | O=C(Nc1nc2cccc(-c3ccc(NCc4ccccc4)cc3)n2n1)C1CC1 [Compound 72, N-(5-(4-(benzylamino)phenyl)-[1,2,4]triazolo[1,5-a]pyridin-2-yl)cyclopropanecarboxamide] | – | – | – | – | –
6 | 2 | – | O=C(Nc1nc2cccc(-c3ccc(OCc4ccc(C(F)(F)F)nc4)cc3)n2n1)C1CC1 [Compound 78, N-(5-(4-((6-(trifluoromethyl)pyridin-3-yl)methoxy)phenyl)-[1,2,4]triazolo[1,5-a]pyridin-2-yl)cyclopropanecarboxamide] | – | – | – | – | –

— US8242274B2, “Triazolopyridine kinase inhibitors useful for the treatment of degenerative and inflammatory diseases” (Galapagos NV, priority 2008, dated 2012)
